Data taken from US20250151728A1, “ANTIMICROBIAL SYSTEM WITH BETA CARBOLINE ALKALOID AND INDOLE ALKALOID AND COMPOSITIONS COMPRISING THEM” (Conopco, Inc., d/b/a UNILEVER, priority 2021, published 2025).

What was measured:
[1] = system: Aspergillus brasiliensis ATCC 16404; assay: Liquid broth assay (MIC and checkerboard) against Aspergillus brasiliensis; assay type: cell-based; conditions: ATCC16404, component by itself, 30° C., 24 hours, MIC = <25% growth vs control (OD600nm)
From the text: (§1) Naturally derived antimicrobial systems were made, as shown below by combining the indole alkaloid and beta carboline alkaloid. Two pools were set up and each pool contained 1 organism. The strains involved were Enterobacter gergoviae ATCC 33028 of the family Pluralibacter gergoviae, a Gram-negative and Aspergillus brasiliensis ATCC 16404. FIC test range was 16 times greater than the projected MIC for each sample.
(§2) The differing behaviors of inhibitory antimicrobials in isolation and mixtures have been widely explored using the concept of the Fractional Concentration and Fractional Inhibitory Concentration (FIC). See for instance JRW Lambert and R Lambert, J. Appl. Microbiol 95, 734 (2003); T. Jadavji, CG Prober and R Cheung, Antibacterial Agents and Chemotherapy 26, 91 (1984), and WO 2004/006876. MIC is the minimum inhibitory concentration a component prevents visible growth of a microbe. The FC and FIC parameters can be defined as follows: […]
(§3) Liquid broth assays (MIC and checkerboard) were conducted to identify the minimum concentration(s) of individual and binary combinations of natural preservation materials. […] Each of the two-preservation chemical/broth mixes was then combined in a third 96 well plate at varying concentrations and then inoculated with 1-5×10^6 microorganisms and incubated at 30° C. for 24 hours, after which optical densities at OD600nm were measured.

[2] = system: Enterobacter gergoviae ATCC 33028; assay: Liquid broth assay (MIC and checkerboard) against Enterobacter gergoviae; assay type: cell-based; conditions: Pluralibacter gergoviae, ATCC33028, component by itself, 30° C., 24 hours, MIC = <25% growth vs control (OD600nm), read-out: minimal inhibitory concentration (MIC)
From the text: as §1, §2, §3

CN(C)Cc1c[nH]c2ccccc12 [Gramine, 1-(1H-Indol-3-yl)-N,N-dimethylmethanamine]
MIC [1]: 6250 µg/mL | MIC [2]: 6250 µg/mL
